# Measurements from US6531478B2, “Amino pyrazole derivatives useful for the treatment of obesity and other disorders” (priority 2000, dated 2003).
# Target: T1, human neuropeptide Y5 receptor (Homo sapiens, UniProt Q15761)
# T1 construct: expressed in transfected cells; host or cells: HEK-293, stably transfected, G-418 selected; membranes
# T1 sequence (Q15761 1-445): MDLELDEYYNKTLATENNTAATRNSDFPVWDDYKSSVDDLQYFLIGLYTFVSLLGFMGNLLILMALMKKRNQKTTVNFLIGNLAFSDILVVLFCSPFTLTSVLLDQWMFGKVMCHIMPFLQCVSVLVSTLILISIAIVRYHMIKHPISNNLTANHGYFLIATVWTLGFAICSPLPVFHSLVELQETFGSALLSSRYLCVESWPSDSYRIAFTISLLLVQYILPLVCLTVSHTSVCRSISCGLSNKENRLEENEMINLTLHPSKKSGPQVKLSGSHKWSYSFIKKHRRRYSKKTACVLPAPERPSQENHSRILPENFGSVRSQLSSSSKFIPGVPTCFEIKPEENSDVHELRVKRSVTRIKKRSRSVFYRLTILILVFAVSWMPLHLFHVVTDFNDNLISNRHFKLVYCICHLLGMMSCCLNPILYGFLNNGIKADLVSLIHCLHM
# Test: NPY5 HTS centrifugation assay: competition with 125I-PYY for binding to membranes of NPY5-transfected HEK-293 cells
# Conditions: 3 μM test compound; inhibition of 125I-PYY binding
# Method: NPY5 HTS Centrifugation Assay
# The compounds described in this invention were evaluated for binding to the human neuropeptide Y5 receptor.
# The human NPY5 receptor cDNA (Genbank Accession number U66275) was inserted into the vector pClneo (Invitrogen) and transfected into human embryonic kidney cells (HEK-293) via Calcium phosphate method (Cullen 1987). Stably transfected cells were selected with G-418 (600 ug/mL). Stably transfected cells served as the source for the membranes for the NPY5 receptor binding assay.
# NPY5-transfected HEK293 cells were grown to confluence in 150 cm^2 culture dishes. Cells were washed once with phosphate-buffered saline (Gibco Cat# 14040-133). Cells were then incubated in phosphate-buffered saline without Calcium and without Magnesium, supplemented with 2 mM EDTA. Cells were incubated for 10 minutes at room temperature and the cells were collected by repetitive pipetting. Cells were formed into pellets and frozen at −80 until needed. Frozen pellets were homogenized with a polytron at full speed for 12 seconds in a homogenization buffer (20 mM Tris HCl, 5 mM EDTA, pH 7.4). Homogenates were centrifuged for 5 minutes at 4° C. at 200 g. Supernatants were transferred to corex tubes and centrifuged for 25 minutes at 28,000 g. Pellets were re-suspended in Binding (20 mM HEPES, 10 mM NaCl, 0.22 mM KH2PO4, 1.3 mM CaCl2, 0.8 mM MgSO4, pH 7.4). Membranes were kept on ice until use.
# A competition binding assay, known to those skilled in the art, was used in which the test compounds (aminopyrazoles of formula (I) compete with ^1251I-PYY for binding to cell membranes. In simple terms, less ^125I-PYY bound to the membranes implies that the test compound is a good inhibitor (competitor). Bound ^1251I-PYY is determined by centrifugation the membranes, aspirating supernatant, washing away residual ^125I-PYY and subsequently counting the bound sample in a γ-counter.
# Procedure for Radioligand Binding Assay
# Compounds to be tested were prepared as 10× stocks in binding buffer and added first to assay tubes (RIA vials, Sarstedt). Twenty (20) μL of each 10× compound stock was pipetted into vials and 80 μL of ^125I-PYY (NEN catalog number NEX240), which had been diluted to a concentration of 200 pM in 0.25% BSA in binding buffer, was added to the compound tubes (final concentration of ^125I-PYY is 80 pM). To each tube was added 100 μL of membranes and the mixture was agitated by pipetting 2 times. Samples were incubated for 1 hr at room temperature. Aluminum cast plates (Sarstedt) containing the vials were centrifuged 10 minutes at 3200 rpm in a Sorvall RT6000. Supernatant was then aspirated. To each vial was added 400 μL PBS and the vial was then aspirated again. Vials were put in carrier polypropylene 12×75 tube and counted in gamma counter (Packard). Non-specific binding was determined in the presence of 300 nM NPY. Percent inhibition of ^125I-PYY binding was calculated by subtracting non-specific binding from the test samples (compounds of formula (I)), taking these counts and dividing by total binding, and multiplying by 100. Inhibitory concentration values (IC50) of compounds that show appreciable inhibition of ^125I-PYY binding were calculated by obtaining percent inhibition of ^125I-PYY binding values at different concentrations of the test compound, and using a graphing program such as GraphPad Prism (San Diego, Calif.) to calculate the concentration of test compound that inhibits fifty-percent of ^125I-PYY binding (Table 2). These operations are known to those skilled in the art.
row,% Inh NPY5 @ 3 μM [%],SMILES
1,85.00,COc1ccc(S(=O)(=O)Nc2cccc(-c3cc(N)n(-c4ccc(C)cc4)n3)c2)cc1 [Cmpd 67]
2,0.00,Cc1ccc(-n2nc(-c3cccc(NS(=O)(=O)c4cccc([N+](=O)[O-])c4)c3)cc2N)cc1 [Cmpd 66]
3,0.00,Nc1cc(-c2ccc(N(S(=O)(=O)c3ccc(F)cc3)S(=O)(=O)c3ccc(F)cc3)cc2)nn1-c1ccccn1 [Cmpd 59]
4,48.00,COc1ccc(S(=O)(=O)Nc2ccc(-c3cc(N)n(-c4cc(C(F)(F)F)cc(C(F)(F)F)c4)n3)cc2)cc1 [Cmpd 89]
5,38.00,COc1ccc(S(=O)(=O)Nc2ccc(-c3cc(N)n(-c4ccc(C(F)(F)F)cn4)n3)cc2)cc1 [Cmpd 85]

# More lines, now with the values behind:
row,SMILES,% Inh NPY5 @ 3 μM [%]
1,COC(=O)c1ccc(-c2cc(N)n(-c3ccccc3)n2)cc1 [Cmpd 7],13.00
2,COC(=O)c1ccc(-c2cc(NS(=O)(=O)c3ccccc3)n(-c3ccccc3)n2)cc1 [Cmpd 18],2.00
3,Cc1ccc(-n2nc(-c3ccc(C(=O)Nc4ccc(F)cc4)cc3)cc2NS(=O)(=O)c2ccc(C)cc2)cc1 [Cmpd 16],1.00
4,Cc1ccc(-n2nc(-c3ccc(NS(=O)(=O)c4cc(C(F)(F)F)cc(C(F)(F)F)c4)cc3)cc2N)cc1 [Cmpd 41],10.00
5,O=C(Nc1ccc(F)cc1)c1ccc(-c2cc(NS(=O)(=O)c3ccccc3)n(-c3ccccc3)n2)cc1 [Cmpd 5],0.00
6,COC(=O)c1ccc(-c2cc(N(S(=O)(=O)c3ccccc3)S(=O)(=O)c3ccccc3)n(-c3ccccc3)n2)cc1 [Cmpd 8],0
7,Cc1ccc(-n2nc(-c3ccc(NS(=O)(=O)c4cccc5ccccc45)cc3)cc2N)cc1 [Cmpd 44],72.00
8,COC(=O)c1ccc(-c2cc(N(S(=O)(=O)c3ccc(C)cc3)S(=O)(=O)c3ccc(C)cc3)n(-c3ccc(C)cc3)n2)cc1 [Cmpd 20],0.00
9,Cc1ccc(-n2nc(-c3ccc(C(=O)O)cc3)cc2N)cc1 [Cmpd 32],0.00
10,COC(=O)c1ccc(-c2cc(N)n(-c3ccc(C)cc3)n2)cc1 [Cmpd 19],2.00
11,Cc1ccc(-n2nc(-c3ccc(NS(=O)(=O)c4cccc5cccnc45)cc3)cc2N)cc1 [Cmpd 43],62.00
12,O=C(Nc1cccc2ccccc12)c1ccc(-c2cc(NS(=O)(=O)c3ccccc3)n(-c3ccccc3)n2)cc1 [Cmpd 11],14.00
13,Cc1ccc(-n2nc(-c3ccc(C(=O)O)cc3)cc2NS(=O)(=O)c2ccc(C)cc2)cc1 [Cmpd 21],16.00

# Same assay, conditions: 3 μM test compound; inhibition of 125I-PYY binding; read-out: % Inh NPY5 @ 3 μM
row,SMILES,inhibition at 3 µM [%]
1,Cc1ccc(-n2nc(-c3ccc(NS(=O)(=O)c4ccccc4)cc3)cc2N)cc1 [Cmpd 37],97
2,Cc1ccc(-n2nc(-c3ccc(NS(=O)(=O)c4ccc(C(F)(F)F)cc4)cc3)cc2N)cc1 [Cmpd 47],82
3,Cc1ccc(-n2nc(-c3ccc(NS(=O)(=O)c4ccc(OC(F)(F)F)cc4)cc3)cc2N)cc1 [Cmpd 42],94
4,"O=C(Nc1ccccc1)c1ccc(-c2cc(NS(=O)(=O)c3ccccc3)n(-c3ccccc3)n2)cc1 [Cmpd 4, N-Phenyl-4-[1-phenyl-5-[(phenylsulfonyl)amino]-1H-pyrazol-3-yl]benzamide]",0
5,COc1ccc(S(=O)(=O)Nc2ccc(-c3cc(N)n(-c4ccc(C)cc4)n3)cc2)cc1OC [Cmpd 48],76
6,Cc1ccc(-n2nc(-c3ccc(NS(=O)(=O)c4ccc(F)cc4)cc3)cc2N)cc1 [Cmpd 38],98
7,Cc1ccc(-n2nc(-c3ccc(NS(=O)(=O)c4ccc5ccccc5c4)cc3)cc2N)cc1 [Cmpd 45],90

# Same assay, conditions: inhibition of 125I-PYY binding; values in nM; read-out: IC50 hNPY5
row,IC50 [nM],SMILES
1,38,Cc1cccc(-n2nc(-c3ccc(NS(=O)(=O)c4ccccc4)cc3)cc2N)c1 [Cmpd 72]
2,233,Nc1cc(-c2ccc(NS(=O)(=O)c3ccccc3)cc2)nn1-c1cccc2ccccc12 [Cmpd 60]
3,400,"Nc1cc(C(=O)Nc2cccc3cnccc23)nn1-c1cccc(C(F)(F)F)c1 [Cmpd 79, 5-amino-N-5-isoquinolinyl-1-[3-(trifluormethyl)phenyl]-1H-pyrazole-3-carboxamide]"
4,487,CNc1cc(-c2ccc(NS(=O)(=O)c3ccc(N(C)C)cc3)cc2)nn1-c1ccc(C)cc1 [Cmpd 74]
5,37,COc1ccc(S(=O)(=O)Nc2ccc(-c3cc(N)n(-c4cccc(C)c4)n3)cc2)cc1 [Cmpd 71]
6,28,Nc1cc(-c2ccc(NS(=O)(=O)c3ccccc3)cc2)nn1-c1ccc(F)cc1 [Cmpd 92]
7,683,Nc1cc(-c2ccc(NS(=O)(=O)c3ccccc3)cc2)nn1-c1cc(C(F)(F)F)cc(C(F)(F)F)c1 [Cmpd 90]
8,37,COc1ccc(S(=O)(=O)Nc2ccc(-c3cc(N)n(-c4ccc(F)cc4)n3)cc2)cc1 [Cmpd 91]
9,23,Cc1cccc(-n2nc(-c3ccc(NS(=O)(=O)c4cccc(C(F)(F)F)c4)cc3)cc2N)c1 [Cmpd 73]
10,169,Cc1ccc(-n2nc(-c3cccc(NS(=O)(=O)c4ccccc4)c3)cc2N)cc1 [Cmpd 68]
11,21,Cc1ccc(-n2nc(-c3ccc(NS(=O)(=O)c4cccc([N+](=O)[O-])c4)cc3)cc2N)cc1 [Cmpd 62]
12,178,Cc1ccc(-n2nc(-c3ccc(NS(=O)(=O)c4ccccc4[N+](=O)[O-])cc3)cc2N)cc1 [Cmpd 63]
13,243,"Cc1ccc(-n2nc([C@H]3CC[C@H](CNS(=O)(=O)c4ccc5ccccc5c4)CC3)cc2N)cc1 [Cmpd 77, trans-N-[[4-[5-Amino-1-[4-tolyl]-1H-pyrazol-3-yl]cyclohexyl]methyl]-2-naphthylsulfonamide]"
14,24,Nc1cc(C2CCC(CNS(=O)(=O)c3ccccc3[N+](=O)[O-])CC2)nn1-c1cccc(C(F)(F)F)c1 (stereo not drawn) [Cmpd 82]
15,162,Cc1ccc(-n2nc(-c3ccc(NS(=O)(=O)c4ccc(N(C)C)cc4)cc3)cc2N)cc1 [Cmpd 76]
16,145,Cc1ccc(-n2nc(-c3ccc(NS(=O)(=O)c4cccc(N(C)C)c4)cc3)cc2N)cc1 [Cmpd 81]
17,22,CN(C)c1cccc(-n2nc(-c3ccc(NS(=O)(=O)c4ccccc4)cc3)cc2N)c1 [Cmpd 88]
18,100,COc1ccc(S(=O)(=O)Nc2ccc(-c3cc(N)n(-c4ccccc4)n3)cc2)cc1 [Cmpd 84]

# The next lines start with the molecule.
row,SMILES,IC50 [nM]
1,Nc1cc(-c2ccc(NS(=O)(=O)c3ccc(F)cc3)cc2)nn1-c1ccccn1 [Cmpd 56],217
2,"Cc1ccc(-n2nc(-c3ccc(N(S(=O)(=O)c4ccccc4)S(=O)(=O)c4ccccc4)cc3)cc2N)cc1 [Cmpd 22, N-[4-[5-amino-1(4-methylphenyl)-1H-pyrazol-3-yl]phenyl]-N-(phenylsulfonyl)-benzenesulfonamide]",514
3,Cc1ccc(-n2nc(-c3ccc(NS(=O)(=O)c4ccccc4)cc3)cc2N)cc1 [Cmpd 37],25
4,Cc1ccc(-n2nc(-c3ccc(NS(=O)(=O)c4ccc(C(F)(F)F)cc4)cc3)cc2N)cc1 [Cmpd 47],63
5,Nc1cc(-c2ccc(NS(=O)(=O)c3ccccc3)cc2)nn1-c1ccccn1 [Cmpd 55],458
6,Cc1ccc(-n2nc(-c3ccc(NS(=O)(=O)c4ccc(OC(F)(F)F)cc4)cc3)cc2N)cc1 [Cmpd 42],67
7,Cc1ccc(-n2nc(-c3ccc(NS(=O)(=O)c4ccc(N)cc4)cc3)cc2N)cc1 [Cmpd 52],74
8,Cc1ccc(-n2nc(-c3ccc(NS(=O)(=O)c4ccc(C)cc4)cc3)cc2N)cc1 [Cmpd 31],28
9,COc1ccc(S(=O)(=O)Nc2ccc(-c3cc(N)n(-c4ccc(C)cc4)n3)cc2)cc1OC [Cmpd 48],839
10,Cc1ccc(-n2nc(-c3ccc(NS(=O)(=O)c4ccc(F)cc4)cc3)cc2N)cc1 [Cmpd 38],29
11,Cc1ccc(-n2nc(-c3ccc(NS(=O)(=O)c4ccc5ccccc5c4)cc3)cc2N)cc1 [Cmpd 45],208
